Measured values from ChEMBL document CHEMBL6087446, “Hypoxia Activated Nitric Oxide Donor Compounds for the Prevention and Treatment of Myocardial Hypoxia-Induced Injury” (J Med Chem, 2025).
Activity calls are given as the source filed them. No cut-off for these calls is given here.

Assays:
[1] = Induction of NO release in rat H9c2 cells at 10 uM by Griess reagent assay relative to control; format: functional
Mus musculus [2] = test: Prevention of myocardial hypoxia injury in isoproterenol-induced male C57 mouse myocardial injury model assessed as increase in NO level in myocardial tissue at 8 to 16 mg/kg, ip once daily for 3 consecutive days; format: functional, organism-based; conditions: dose 8-16 mg/kg, time 3.0 day
[3] = Toxicity in isoproterenol-induced male C57 mouse assessed as body weight change at 5 mg/kg, ip once daily for 3 consecutive days; format: organism-based; conditions: in vivo, 72 h, time 3 day
Mus musculus [4] = test: Prevention of myocardial hypoxia injury in isoproterenol-induced male C57 mouse myocardial injury model assessed as heart weight ratio at 16 mg/kg, ip once daily for 3 consecutive days (reference value: 0.60%); format: functional; conditions: time 3 day
H9c2 [5] = test: Induction of NO release in rat H9c2 cells under hypoxia condition at 10 uM by Griess reagent assay relative to control; format: functional
Mus musculus [6] = test: Prevention of myocardial hypoxia injury in isoproterenol-induced male C57 mouse myocardial injury model assessed as reduction in cardiac troponin (CK) at 8 to 16 mg/kg, ip once daily for 3 consecutive days by immunohistochemistry; format: functional, organism-based; conditions: dose 8-16 mg/kg, time 3.0 day
H9c2 [7] = test: Prevention of hypoxia-induced TSP1 expression in rat H9c2 cells assessed as inhibition of TSP1 overexpression at 10 uM measured after 4 hrs incubation; format: functional, cell-based
H9c2 [8] = test: Prevention of hypoxia-induced ACE expression in rat H9c2 cells assessed as inhibition of ACE overexpression at 10 uM measured after 4 hrs incubation; format: functional, cell-based
Mus musculus [9] = test: Prevention of myocardial hypoxia injury in isoproterenol-induced male C57 mouse myocardial injury model assessed as antihypertrophic effect at 8 mg/kg, ip once daily for 3 consecutive days; format: functional, organism-based; conditions: time 3.0 day
Mus musculus [10] = test: Prevention of myocardial hypoxia injury in isoproterenol-induced male C57 mouse myocardial injury model assessed as reduction in creatine kinase (CK) at 5 mg/kg, ip once daily for 3 consecutive days by immunohistochemistry; format: functional, organism-based; conditions: time 3.0 day
Mus musculus [11] = test: Prevention of myocardial hypoxia injury in isoproterenol-induced male C57 mouse myocardial injury model assessed as antihypertrophic effect at 16 mg/kg, ip once daily for 3 consecutive days; format: functional, organism-based; conditions: time 3.0 day
[12] = Cmax in female Balb/c mouse at 8 mg/kg, ip measured up to 24 hrs by LC-MS/MS analysis; format: ADME, organism-based; conditions: in vivo
H9c2 [13] = test: Prevention of hypoxia-induced ROS production in rat H9c2 cells at 1 uM measured after 4 hrs incubation by DCFH-DA method; format: functional, cell-based
Mus musculus [14] = test: Prevention of myocardial hypoxia injury in isoproterenol-induced male C57 mouse myocardial injury model assessed as pathological myocardial change by heart sections at 8 to 16 mg/kg, ip once daily for 3 consecutive days by hematoxylin and eosin staining based analysis; format: functional, organism-based; conditions: dose 8-16 mg/kg, time 3.0 day

With `CN(N=O)c1ccc(OCc2ccc([N+](=O)[O-])c(F)c2)cc1` the Activity [1] was less than 5%, the Activity (Mus musculus [2]) was “Active” and the Activity [3] was “Non-toxic”. For the same molecule, the Activity (Mus musculus [4]) was 0.51%, the Activity (H9c2 [5]) was 26.54% and the Activity (Mus musculus [6]) was “Active”. For the same molecule, the Activity (H9c2 [7]) was “Active”, the Activity (H9c2 [8]) was “Active” and the Activity (Mus musculus [9]) was “Active”. The Activity (Mus musculus [10]) was “Active”, the Activity (Mus musculus [11]) was “Active” and the Cmax [12] was 450 ng/mL. For the same molecule, the Activity (H9c2 [13]) was “Active” and the Activity (Mus musculus [14]) was “Active”.
